Measured values reported in patent US8334299B2, “β-carboline for the treatment of neurodegenerative diseases” (Ellneuroxx, Ltd., priority 2007, dated 2012).

Tests used:
[1] = tested on: genes involved in neuronal differentiation, inflammation, apoptosis; assay: Microarray analysis of gene transcription in midbrain cultures; format: cell-based, mice; details: vs control cultures
From the text: These findings were further sustained by so-called microarray methods. The analyses confirm that the transcription of genes involved in neuronal differentiation is increased.

dopaminergic neurons [2] = assay: Dopamine concentration in midbrain culture; format: cell-based, mice; details: 50 μM, 48 hours, 10 DIV-12 DIV
Method: FIG. 2a Dopamine concentration (dopamine content) after incubation with 50 μM 9-methyl-β-carboline for 48 hours from 10 DIV-12 DIV.
(§1) To obtain further hints that the number of dopaminergic neurons really has increased, the dopamine concentration was measured. […] Another characteristic and specificity of dopaminergic neurons is the transport of dopamine into the neurons. Dopamine cannot permeate the outer membrane of neurons because of its hydrophilic character. It must be actively and energy-dependently transported through the DAT mechanism.

[3] = tested on: glial cell line-derived neurotrophic factor (GDNF); assay: PCR superarray of RNA from the striata of MPP+ rats: GDNF; format: in vivo, rat
From the text: To investigate Parkinson's disease acute in vivo models are used for years although chronic models would be a better model for the disease. Another disadvantage of the acute models is that ca. 40% of the animals die from the application of the neurotoxin. Therefore, we have chosen a chronic model in which comparably very low doses of neurotoxin 1-methyl-4-phenylpyridinium (MPP^+) were infused for 28 days into the left lateral ventricle of the rat brain. The substance was continuously applied through osmotic minipumps. Thereby, casualties were completely avoided. After four weeks, either solvent or equimolar amounts of the sample substance, namely neuroprotective betacarboline, resp. 9-alkyl-betacarboline was infused for two weeks via the same catheter. In a preliminary study for dose-finding the MPP^+ dose which leads to a reduction by 40% of the dopamine concentration in the striatum was determined. The dopamine concentration in the striatum is a characteristic marker for Parkinson's disease in which a degeneration of dopaminergic neurons occurs.
An explanation for the effect of the betacarboline was found in the tests of the RNA from the striata of these rats through the PCR superarray method. Accordingly, the betacarboline activates the generation of neurotrophins, thus proteins produced naturally in the body, which are responsible for the growth and differentiation of neurons. […]

caspase-3 = assay: Activity of the apoptosis enzyme caspase-3 in midbrain culture; format: cell-based, mice; details: 50 μM
Method: FIG. 4d Activity of the apoptosis enzyme caspase-3 during and after incubation with 50 μM 9-methyl-β-carboline for 48 hours 10 DIV-12 DIV.
(§2) In 48 hours about 20% of the cells in culture died. In cultures with a 9-Alkyl-β-carboline only about 10% of the cells died under the same conditions (FIG. 4b). Thus, the findings are in line with the LDH findings. ATP provides the cell with energy. […] The enzyme caspase-3 is an indicator for apoptosis. After 24 hours, the enzyme activity was reduced which hints at a reduction of apoptotic processes, after 48 hours, however, it was increased (FIG. 4d). The last finding hints at a switch of culture cells from reduced necrosis to apoptosis, thus a more precise regulation of cell death.

[4] = tested on: Sonic Hedgehog, Wnt 1, Wnt 5a, engrailed 1, Nurr 1, Pitx 3, Aldh1a1, DAT, tyrosin hydroxylase; assay: Real-time-RT-PCR of neurotrophic transcription factors and dopamine markers in midbrain cultures; format: cell-based, mice; details: 50 μM, 48 hours and 48 hours after removal
Method: FIG. 7 Evidence of gene expression of neurotrophic transcription factors and dopamine markers with real-time-RT-PCR after incubation with 50 μM 9-methyl-β-carboline for 48 hours 10 DIV-12 DIV.
For this purpose, real-time-RT-PCR experiments were carried out. In this quantitative method the transcription of selected genes is measured. We selected genes which are enhanced under proliferation and differentiation conditions and such that are of importance for the formation, stability and degradation of dopaminergic neurons. The analyses were conducted in midbrain cultures after exposition to 50 μM 9-methyl-β-carboline for 48 hours and 48 hours after removal of 9-methyl-β-carboline. Control cultures were kept simultaneously under the same conditions. […] Moreover, factors were increased which are activated during the formation of dopaminergic precursor cells (progenitor cells) (Aldh1a1), the dopamine transporter (DAT) and tyrosin hydroxylase.

dopaminergic neurons [5] = assay: Primary midbrain culture, tyrosin hydroxylase staining and counting of dopaminergic neurons; format: cell-based, mice
Method: The experiments were carried out with the human neuroblastoma cell line (SH-SY5Y-cells) and with a cell culture of primary nerve cells from the mice embryo midbrain. […] Moreover, the mentioned compounds induce in the primary culture from the mice embryo midbrain the generation of new, differentiated and functional dopaminergic neurons.
To this aim midbrain cultures were prepared and kept for 10-12 days (DIV=Days in vitro) in an appropriate medium to accustom to in vitro conditions. Then 9-methyl-β-carboline was added in increasing concentrations and it was waited for 48 hours. Dopaminergic neurons were identified by staining with tyrosin hydroxylase. This enzyme occurs only in dopaminergic midbrain neurons. The number of dopaminergic neurons can be counted reliably with this method. In addition, hints can be obtained whether the dopaminergic neurons are mature or if they are precursor cells. The mature cells have characteristic extensions which also contain tyrosin hydroxylase.

[6] = tested on: midbrain cells in culture; assay: ATP content of midbrain culture; format: cell-based, mice; details: 50 μM, 48 hours
Method: FIG. 4c ATP concentration (ATP content) after incubation with 50 μM 9-methyl-β-carboline (9-Me-BV) for 48 hours 10 DIV-12 DIV.
as §2

dopaminergic neurons [7] = assay: 3H-dopamine uptake (dopamine transport capacity) in midbrain culture; format: cell-based, mice; details: 50 μM, 48 hours, 10 DIV-12 DIV
Method: FIG. 2b Dopamine transport capacity of dopaminergic neurons after 48 hours. ^3H-dopamine uptake after incubation with 50 μM 9-Me-BC for 48 hours from 10 DIV-12 DIV.
as §1

Cn1c2ccccc2c2ccncc21 [9-methyl-β-carboline]
transcription of genes involved in apoptosis [1]: transcribed less | transcription of genes involved in neuronal differentiation [1]: increased | transcription of genes which activate inflammation processes [1]: transcribed less | dopamine concentration (dopamine content) (dopaminergic neurons [2]): slightly increased without reaching significance level | concentration of GDNF ([3]; left striatum): did not increase | increase of GDNF by factor ([3]; right striatum): 12 | caspase-3 enzyme activity (caspase-3; after 24 hours): reduced | caspase-3 enzyme activity (caspase-3; after 48 hours): increased | transcription of Aldh1a1, dopamine transporter (DAT) and tyrosin hydroxylase [4]: increased | transcription of Sonic Hedgehog, Wnt 1, Wnt 5a, engrailed 1, Nurr 1 and Pitx 3 [4]: activated | increase in dopaminergic neurons after inactivation of the dopamine transporter DAT (dopaminergic neurons [5]; 50 μM 9-Me-BC with DAT inhibitor GBR12909, 48 hours): does not occur | cellular extensions and branching of dopaminergic neurons (dopaminergic neurons [5]; 50 μM, 48 hours, vs control without compound): significantly more cellular extensions | number of dopaminergic neurons (dopaminergic neurons [5]; 10-200 μM, 48 hours, 10 DIV-12 DIV, increase up to ca. 100 μM): increased dose-dependently | concentration of ATP [6]: increased | neuronal transport capacity of dopamine (3H-dopamine uptake) (dopaminergic neurons [7]): increases
